These results are taken from EP0181109B1, “N6-benzopyrano- and benzothiopyrano-adenosines” (WARNER-LAMBERT COMPANY, priority 1984, dated 1986).

The structures appear in SMILES notation.

One may read the IC50 as the concentration at which inhibition is half-maximal.

In assay [1] the target is T1, adenosine A2 receptor (Rattus norvegicus, UniProt P30543).
T1 construct: Brains were thawed and then kept on ice while the striata were dissected out; tissue Pel-Freez (Rogers, Arkansas); host or cells: rat striatum (membranes)
In words: Adenosine Receptor Binding - A2 Receptor Affinity (RBA2), [3H]NECA displacement in striatal membranes. The following applies: 4 nM [3H]NECA, 50 nM N6-cyclopentyladenosine, 60 minutes at 25°C, read-out: RBA-2 (IC50, A2 receptor affinity). As for the experimental part:
Brains from 200-500 g mixed sex Sprague-Dawley rats were purchased from Pel-Freez (Rogers, Arkansas). Fresh brains from male Long-Evans hooded rats (Blue Spruce Farms, Altamont, NY) gave essentially identical results. Brains were thawed and then kept on ice while the striata were dissected out. Striata were disrupted in 10 vol of ice-cold 50 mM Tris·HCl (pH 7.7 at 25°C, pH 8.26 at 5°C) (Tris) for 30 seconds in a Polytron PT―10 (Brinkmann) at setting 5. The suspension was centrifuged at 50,000 xg for ten minutes, the supernatant discarded, the pellet resuspended in 10 vol ice-cold Tris as above, recentrifuged, resuspended at 1 g/5 ml, and stored in plastic vials at -70°C (stable for at least six months). When needed, tissue was thawed at room temperature, disrupted in a Polytron, and kept on ice until used.
All incubations were for 60 minutes at 25°C in 12 x 75 mm glass tubes containing 1 ml Tris with 5 mg original tissue weight of rat weight of rat striatal membranes, 4 nM [^3H]-N-ethyl adenosine-5'-carboxamide ([^3H]NECA), 50 nM N^s-cyclopentyladenosine (to eliminate A1 receptor binding), 10 mM MgCI2, 0.1 units/ml of adenosine deaminase and 1% dimethylsulfoxide. N^6-Cyclopentyladenosine was dissolved at 10 mM in 0.02 N HCI and diluted in Tris. Stock solutions and dilutions of N^6-cyclopentyladenosine could be stored at -20°C for several months. Test compounds were dissolved at 10 mM in dimethylsulfoxide on the same day as the experiment, and diluted in dimethylsulfoxide to 100x the final incubation concentration. Control incubations received an equal volume (10 µl) of dimethylsulfoxide; the resulting concentration of dimethylsulfoxide had no effect on binding. [^3H]NECA was diluted to 40 nM in Tris. The membrane suspension (5 mg/0.79 ml) contained sufficient MgC12 and adenosine deaminase to give 10 mM and 0.1 units/ml, respectively, final concentration in the incubation. […] After all additions, the rack of tubes was vortexed, and the tubes were then incubated for 60 min at 25°C in a shaking water bath. The rack of tubes was vortexed an additional time halfway through the incubation.
Incubations were terminated by filtration through 2.4 cm GF/B filters under reduced pressure. Each tube was filtered as follows: the contents of the tube were poured onto the filter, 4 ml of ice-cold Tris were added to the tube and the contents poured onto the filter, and the filter was washed twice with 4 ml of ice-cold Tris. The filtration was complete in about 12 seconds. Filters were put in scintillation vials, 8 ml of Formula 947 scintillation fluid added, and the vials left overnight, shaken, and counted in a liquid scintillation counter at 40% efficiency.
Nonspecific binding was defined as binding in the presence of […] N^6-cyclopentyladenosine, and specific binding was defined as total binding minus nonspecific binding. The IC50 was calculated by weighted nonlinear least squares curve-fitting to the mass action equation. [formula] • where Y is cpm bound • T is cpm total binding without drug • S is cpm specific binding without drug • D is the concentration of drug • and K is the IC50 of the drug Weighting factors were calculated under the assumption that the standard deviation was proportional to the predicted value of Y. Nonspecific binding was treated as a very large (infinite) concentration of drug in the computer analysis.

The test system of assay [2] is conscious rat. In words: Antihypertensive evaluation (AHP3): direct monitoring of aortic blood pressure and heart rate from conscious rats. In kind it is in vivo. As for the experimental part:
This test procedure is described in the following paragraphs.
The continuous monitoring of pulsatile blood pressure (BP) from unrestrained conscious rats surgically equipped with polyethylene cannulas was accomplished by means of a computer assisted data capture scheme (CADCS). The basic elements of the methodology are the cannulation procedure and the CADCS.
Cannulation Procedure: Rats were anesthetized with Telazol (1:1 tiletamine HCI and zolazepam HCI); 20-40 mg/kg IM and the descending aorta exposed via a midline incision. Cannulas fabricated from polyethylene tubing were inserted into the aorta via an undersized puncture hole below the renal arteries. The puncture hole was made by a 23 G disposable needle with a section of the aorta clamped off above and below the puncture site. The cannulas, consisting of a PE100 (0.86 mm ID) body and a PE50 (0.58 mm ID) tip, were attached to a trocar, inserted through the psoas muscle, and passed subcutaneously along the midline of the back and externalized between the ears. The cannulas were anchored to the psoas muscle and between the scalulae (3-0 green braided suture). The midline incision was closed in two steps (muscle first, skin second) using continuous over-and over sutures (4-0 chronic). Each rat was then given penicillin 30,000 units subcutaneously (Penicillin G Procaine Sterile Suspension).
The rats were fitted with a harness-spring-swivel assembly designed to protect the cannula and to provide the rat relative freedom of movement. The harnesses were fabricated from nylon hook and loop tape cemented to a metal plate to which spring wires (18-8 stainless steel), were attached to brass swivels. Each polyethylene cannula was channeled through a spring and connected through a swivel to a pressure transducer (Model P23Gb; Statham Instruments; Hato Rey, Puerto Rico) and an infusion pump (Sage model 234-7; Orion Research, Cambridge, MA) by means of PE100 tubing. While on test, each rat received a continuous slow infusion of heparinized saline solution (approximately 400 I or 40 units of heparin per 24 hour period) to prevent clot formation. Additional "flushes" of the cannula with heparinized saline were carried out when the aortic pulse pressure (systolic minus diastolic) was less than 25 mm Hg.
CADCS: The pulsatile blood pressure and heart rate of each of 32 rats was monitored every minute by means of two in-laboratory microcomputers communicating directly with a data concentrator computer. The data were first stored on the data concentrator disk and the transferred to a magnetic tape for analysis and report generation by the main research computer. The overall scheme involved modulating the primary signal from the pressure transducer, generating the primary data set of the one-minute values for systolic, diastolic, and mean blood pressures and heart rate by the in-lab microcomputer and the storage, analysis, and report generation by the main research computer.
The transducers were connected to analog signal conditioning modules. The modules provided a regulated excitation voltage for the transducers, amplification as required to interface the microprocessors and an active low pass filter to compensate for the pressure wave form distortion produced by the fexible, fluid filled, narrow cannula. The distortion was 22-26 Hz and this provided a reliable estimate of both systolic and diastolic blood pressure.
The microcomputers (one for each of the two groups of 16 rats) were connected to the input components through the module interface units, an analog-to-digital converter for the pressure wave form signal and the digital inputs for the dose and event marker switches. The microcomputer controlled the sequential acquisition of data from the modular interface units through an internal synchronous time-of- day clock/time base generator. […]

Where [3] appears, read: 10 mg/kg, Hour 3, conscious rat.
Setting [4] is: 10 mg/kg, Hour 5, conscious rat.

T1 sequence (P30543 whole entry): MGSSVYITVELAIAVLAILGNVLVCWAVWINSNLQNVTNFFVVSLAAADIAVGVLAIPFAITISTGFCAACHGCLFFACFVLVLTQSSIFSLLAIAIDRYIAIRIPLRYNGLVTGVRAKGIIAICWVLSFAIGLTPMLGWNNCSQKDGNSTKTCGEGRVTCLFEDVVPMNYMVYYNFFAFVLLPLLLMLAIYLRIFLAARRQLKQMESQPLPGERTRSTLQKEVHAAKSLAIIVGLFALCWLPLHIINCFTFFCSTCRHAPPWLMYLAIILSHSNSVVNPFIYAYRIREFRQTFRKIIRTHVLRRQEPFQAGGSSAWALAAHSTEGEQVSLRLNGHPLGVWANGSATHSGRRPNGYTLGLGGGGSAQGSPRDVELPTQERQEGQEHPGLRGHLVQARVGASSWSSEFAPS

`OC[C@H]1O[C@@H](n2cnc3c(NC4CSc5ccccc5C4)ncnc32)[C@H](O)[C@@H]1O` (stereo partly drawn) [Example 2]: in assay [1], the IC50 is 340 nM.

Regarding `OC[C@H]1O[C@@H](n2cnc3c(NC4CCSc5ccccc54)ncnc32)[C@H](O)[C@@H]1O` (stereo partly drawn) [Example 15], the IC50 in assay [1] amounted to 86.5 nM.

As to `CC1Oc2ccccc2CC1Nc1ncnc2c1ncn2C1OC(CO)C(O)C1O` (stereo not drawn) [Example 7, N^6-[cis-2-Methyl-3-chromanylamino]adenosine], the IC50 in assay [1] is 1840 nM.

On to `O=S1(=O)CCC(Nc2ncnc3c2ncn3[C@@H]2O[C@H](CO)[C@@H](O)[C@H]2O)c2ccccc21` (stereo partly drawn) [Example 16, N^6-[4-Benzothiopyran-1,1-dioxideamino]adenosine], for which the IC50 in assay [1] amounted to 1390 nM.

`COc1cc(OC)c2c(c1)OC(C)(C)CC2Nc1ncnc2c1ncn2[C@@H]1O[C@H](CO)[C@@H](O)[C@H]1O` (stereo partly drawn) [Example 14]: the MAP change in assay [2] (setting [3]) amounted to 0%. Further, the IC50 in assay [1] was 37900 nM.

As to `OC[C@H]1O[C@@H](n2cnc3c(NC4COc5c(Cl)cccc5C4)ncnc32)[C@H](O)[C@@H]1O` (stereo partly drawn) [Example 5], in assay [2] (setting [4]), the HR change is on record as 0%. Moreover, the IC50 in assay [1] stood at 210 nM.

For the molecule `Cc1ccc2c(c1C)OC(C)C(Nc1ncnc3c1ncn3[C@@H]1O[C@H](CO)[C@@H](O)[C@H]1O)C2` (stereo partly drawn) [Example 11], the HR change in assay [2] (setting [3]) and in assay [2] (setting [4]) was 0% throughout. Also, the IC50 in assay [1] turned out to be 360 nM.

On to `CC(C)(C)c1ccc2c(c1)OCC(Nc1ncnc3c1ncn3[C@@H]1O[C@H](CO)[C@@H](O)[C@H]1O)C2` (stereo partly drawn) [Example 13, N^6-[7-t-Butyl-3-chromanylamino)adenosine], for which the IC50 in assay [1] amounted to 2940 nM.

As for `OC[C@H]1O[C@@H](n2cnc3c(NC4CCOc5ccccc54)ncnc32)[C@H](O)[C@@H]1O` (stereo partly drawn) [Example 1], the IC50 in assay [1] came out at 600 nM.

Take `COc1ccc2c(c1)OCC(Nc1ncnc3c1ncn3[C@@H]1O[C@H](CO)[C@@H](O)[C@H]1O)C2` (stereo partly drawn) [Example 3]: in assay [1], the IC50 came out at 1360 nM.

Consider `Cc1cc2c(cc1C)OCC(Nc1ncnc3c1ncn3[C@@H]1O[C@H](CO)[C@@H](O)[C@H]1O)C2` (stereo partly drawn) [Example 9, N^6-[6,7-Dimethyl-3-chromanylamino]adenosine], for which, in assay [2] (10 mg/kg, Hour 7, conscious rat), the HR change worked out at 0%. Besides, the IC50 in assay [1] came to 1240 nM.

In assay [2] (3 mg/kg, Hour 5, conscious rat), `Cc1ccc2c(c1C)OCC(Nc1ncnc3c1ncn3[C@@H]1O[C@H](CO)[C@@H](O)[C@H]1O)C2` (stereo partly drawn) [Example 10, N^6-[7,8-Dimethyl-3-chromanylamino]adenosine] returned an HR change of 0%. The IC50 in assay [1] turned out to be 942 nM.

On to `C[C@H]1Oc2ccccc2C[C@@H]1Nc1ncnc2c1ncn2[C@@H]1O[C@H](CO)[C@@H](O)[C@H]1O` (relative stereo) [Example 8, N^l-[trans-2-Methyl,-3-chromanylamino]adenosine], for which, in assay [1], the IC50 is 490 nM.

In the case of `COc1ccc2c(c1)CC(Nc1ncnc3c1ncn3[C@@H]1O[C@H](CO)[C@@H](O)[C@H]1O)CO2` (stereo partly drawn) [Example 6], the 50% inhibitory concentration (IC50) in assay [1] came out at 1090 nM.

As for `OC[C@H]1O[C@@H](n2cnc3c(NC4COc5ccccc5C4)ncnc32)[C@H](O)[C@@H]1O` (stereo partly drawn) [Example 4, N^6-[3-Chromanylamino]adenosine], the IC50 in assay [1] was 610 nM.
